The text below walks through data of patent US6525245B1, “Method for identifying components involved in signal transduction pathways in higher plants” (The Board of Regents of the University of Nebraska, priority 1999, dated 2003).

The subject of one data set is AOX. As to conditions: cited from earlier work; for effect on AOX transcription / effect on branched chain amino acid biosynthesis: Aubert et al. 1997.
Data set [1] deals with AOX1a promoter. In words: Luciferase expression in excised leaves of AOX1a promoter::luciferase transgenic lines, exposure to film. The format is cell-based, Arabidopsis thaliana. Particulars: for luciferase response to application: lines PZB-ALN 26 and 47. On the procedure: Initial screening of the F1 plants was done by spraying excised leaves with 10 uM AA (FIG. 4A). The leaves were incubated for 4 hr in the light, then sprayed with luciferin, and exposed to autoradiographic film. […] Several pZB-ALN lines were used for imaging experiments employing a Hamamatsu photon-counting, CCD camera system (model C2400-75H).

A further data set deals with Arabidopsis plants. Put plainly: Survival of Arabidopsis plants after treatment. The format is in vivo. As for the experimental part:
In order for a screen involving application of antimycin A or sulfometuron methyl to succeed, plants must survive the screening procedure. […] Plants from line pZB-ALN 8 were used to produce the dose response curve shown in FIG. 6 were transferred to fresh growth plates (without antimycin A) after 36 h of antimycin A treatment. […] These plants remained green with healthy, expanded first true leaves and healthy roots and produced a normal-looking second set of true leaves.

In data set [2] the test system is AOX1a promoter. Put plainly: Dose-response of AOXP-driven luciferase expression in seedlings, photon-counting CCD camera. The format is in vivo, Arabidopsis thaliana. As to conditions: line pZB-ALN 8. On the procedure:
Seeds from these lines were sterilized and germinated on filter discs on standard growth agar in six-well plates and then grown at 20° C. and 66 uE of continuous light for 7 days (to eliminate the possibility of circadian rhythm effects). A Hamamatsu CCD camera system was used to quantify the levels of AOXP-driven luciferase expression. […] Plants were imaged immediately following transfer to induction plates, then returned to the growth chamber under 66 uE continuous light and 20° C.

As to `COc1nc(C)nc(NC(=O)NS(=O)(=O)c2ccccc2Cl)n1` [chlorsulfuron], in the data set with AOX, the “effect on AOX transcription” value is listed as “increase in AOX transcription” and the “effect on branched chain amino acid biosynthesis” value is “inhibit branched chain amino acid biosynthesis”.
On to `O=C(O)CC(O)(CC(=O)O)C(=O)O` [citrate], for which the “AOX mRNA accumulation” value in the data set on AOX (increase in amount of citrate in tobacco cells) is recorded as “accumulate”. In the data set on AOX1a promoter [1], the “luciferase response to application” value is recorded as “lower, but definite response”.
As for `O=C(O)c1ccccc1O` [salicylic acid], the AOX transcript accumulation entry with AOX (Sauromatum guttatum and tobacco) is on record as “accumulate”. For the same compound, the “luciferase response to application” value with AOX1a promoter [1] is recorded as “lower, but definite response”.
Take `COC(=O)c1ccccc1S(=O)(=O)NC(=O)Nc1nc(C)cc(C)n1` [sulfometuron methyl]: the “survival of plants after treatment” value in the data set with Arabidopsis plants (wild-type Arabidopsis plants sprayed with 5 uM or 5 nM) is given as “survive treatment”. In the data set with AOX, the “effect on AOX transcription” value was “increase in AOX transcription” and the “effect on branched chain amino acid biosynthesis” value is “inhibit branched chain amino acid biosynthesis”. The luciferase expression entry in the data set with AOX1a promoter [1] (5 nM, 24 h following treatment, some of the lines) is given as “higher luciferase expression”.
antimycin A: in the data set on AOX1a promoter [2] (1.0 mM or 100 uM), the “peak induction of luciferase expression over the negative control” value is “about 17 fold”, the “time after transfer until which peak induction level is kept” value is given as “at least 10 h” and the “time of peak induction after application” value is “about 6 h”. In the data set on AOX1a promoter [2], the “lowest concentration giving measurable induction” value stood at 0.1 µM. In addition, in the data set on Arabidopsis plants (line pZB-ALN 8, 0.1, 1.0, 10, 100 and 1000 uM, 36 h treatment, six days after treatment), the “survival of plants after treatment” value is given as “survived without any apparent developmental alterations”. Besides, the “effect on AOX protein and transcript” value with AOX (petunia cells, tobacco, Hensenula anomala) was “increases in AOX protein and transcript”. Moreover, the “luciferase expression versus untreated control leaves” value in the data set with AOX1a promoter [1] (10 uM, 4 h after treatment, excised leaves, pZB-ALN and pZP-ALE lines, qualitative) is given as “higher luciferase expression”.
